Measurements taken from US4880809A, “1,4-disubstituted piperazines (or homopiperazines) as platelet-activating factor antagonists” (Takeda Chemical Industries, Ltd., priority 1987, dated 1989).
Structures can show the parent of a compound that is named as a salt.

Assays:
[1] = test system: PAF-Induced Platelet Aggregation; assay: Inhibitory Action on PAF-Induced Platelet Aggregation; type: cell-based, New Zealand white male rabbits; settings: Oryctolagus cuniculus, Drug Concentration: 3 × 10^-5 M, rabbit PRP
Procedure: Blood was collected from the hearts of conscious New Zealand white male rabbits weighing 2 to 3 kg using citric acid as an anticoagulant (one volume part of 3.15% citric acid per 9 volume parts of the whole blood). The blood was subjected to a centrifuge at 800 rpm for ten minutes to obtain platelet rich plasma (PRP). The remaining blood after collecting the PRP was subjected to a centrifuge at 3000 rpm for ten minutes to obtain platelet poor plasma (PPP). PRP was diluted with PPP, and the number of platelets was adjusted to 500,000/μl. Platelet aggregation was examined by means of turbidimetry [Born, Nature, 194, 927-929 (1962)] with 8 channel aggregometer (NBS HEMA TRACER 6 Nikoh, Bioscience, Japan). More concretely, PRP (250 μl) was kept warm (37° C.) for three minutes in a silicon-processed cuvette, to which was added a test sample (25 μl) dissolved in a physiological saline or in 10mM dimethylsulfoxide followed by dilution with a physiological saline. Two minutes later, PAF (25 μl, 3×10^-9 -1×10^-8 M), dissolved in a physiological saline, was added and then the maximum aggregation rate was determined. As the control, physiological saline without test sample was added to the cuvette, and the inhibitory rate thereon was determined.

PAF-Induced Hypotension = assay: Inhibitory Action on PAF-Induced Hypotension; type: in vivo, SD (Jcl) male rats; settings: po, rat; for inhibition in vivo at 30 mg/kg: 30 mg/kg p.o.; for inhibition in vivo at 3 mg/kg: 3 mg/kg p.o.; for inhibition in vivo at 10 mg/kg: 10 mg/kg p.o.
Procedure: SD (Jcl) male rats of 6 to 8 week old were subjected to the experiment. After fasting overnight, the rats were cannulated into the femoral artery and vein under anesthesia with pentobarbital. A transducer (MPU-0.5-290O-III, TOYO BALDWIN, Japan) was connected with the artery cannula, and blood pressure was continuously measured. […] The rate of inhibition of lowering of blood pressure after administration of the test samples against the control was evaluated.

Compound	inhibition at 30 µM [1] [%]	inhibition in vivo at 30 mg/kg (PAF-Induced Hypotension; after 1 hr) [%]	inhibition in vivo at 30 mg/kg (PAF-Induced Hypotension; after 2 hrs) [%]	inhibition in vivo at 30 mg/kg (PAF-Induced Hypotension; after 4 hrs) [%]	other results
COc1cc(CN2CCN(C(=O)C3=Cc4ccc(OC)c(OC)c4CCC3)CC2)cc(OC)c1OC [Example 43, 1-(3,4-dimethoxy-6,7-dihydro-5H-benzocyclohepten-8-ylcarbonyl)-4-(3,4,5-trimethoxybenzyl)piperazine hydrochloride]	89				
CCCOc1cc2c(cc1OCCC)CCC(C(=O)N1CCN(Cc3cc(OC)c(OC)c(OC)c3)CC1)=C2 [Example 60, 1-(6,7-dipropoxy-1,2-dihydro-3-naphthoyl)-4-(3,4,5-trimethoxybenzyl)-piperazine hydrochloride]	100	79	69	60	
COc1cc2c(cc1OC)CCC(C(=O)N1CCN(C(=O)c3cc(OC)c(OC)c(OC)c3)CC1)=C2 [Example 56, 1-(6,7-dimethoxy-1,2-dihydro-3-naphthoyl)-4-(3,4,5-trimethoxybenzoyl)piperazine]	100	100	97	88	
CCCCOc1ccc2cc(C(=O)N3CCN(Cc4cc(OC)c(OC)c(OC)c4)CC3)ccc2c1 [Example 17, 1-(6-butoxy-2-naphthoyl)-4(3,4,5-trimethoxybenzyl)piperazine hydrochloride]	97				
COc1cc2ccccc2cc1C(=O)N1CCN(Cc2cc(OC)c(OC)c(OC)c2)CC1 [Example 24, 1-(3-methoxy-2-napththoyl)-4-(3,4,5-trimethoxybenzyl)piperazine hydrochloride]	100				
CCCOc1cc2c(cc1OCCC)CCC(C(=O)N1CCN(C(=O)c3cc(OC)c(OC)c(OC)c3)CC1)=C2 [Example 66, 1-(6,7-dipropoxy-1,2-dihydro-3-naphthoyl)-4-(3,4,5-trimethoxybenzoyl)piperazine]	100	77	79	68	
COc1cc(CN2CCN(C(=O)c3ccc4c(OC)c(OC)c(OC)cc4c3)CC2)cc(OC)c1OC [Example 12, 1-(3,4,5-trimethoxybenzyl)-4-(5,6,7-trimethoxy)-2-naphthoyl)piperazine hydrochloride]	100				
CCOc1cc2c(cc1OCC)CCC(C(=O)N1CCN(Cc3cc(OC)c(OC)c(OC)c3)CC1)=C2 [Example 58, 1-(6,7-diethoxy-1,2-dihydro-3-naphthoyl)-4-(3,4,5-trimethoxybenzyl)piperazine hydrochloride]	100	88	95	65	
CCOc1cc2c(cc1OCC)CCCC(C(=O)N1CCN(C(=O)c3cc(OC)c(OC)c(OC)c3)CC1)=C2 [Example 73, 1-(2,3-diethoxy-6,7-dihydro-5H-benzocyclohepten-8-ylcarbonyl)-4-(3,4,5-trimethoxybenzoyl)piperazine]		98	98	96	
COc1cc(CN2CCN(C(=O)c3ccc4c(c3)C(O)c3ccccc3-4)CC2)cc(OC)c1OC (centres unmarked) [Example 39, 1-(9-hydroxy-2-fluorenylcarbonyl)-4-(3,4,5-trimethoxybenzyl)piperazine hydrochloride]	100	70	64	47	
COc1cc(CN2CCN(C(=O)c3ccc4ccccc4c3)CC2)cc(OC)c1OC [Example 7, 1-(2-naphthoyl)-4-(3,4,5-trimethoxybenzyl)piperazine hydrochloride]	95				
COc1cc2ccc(C(=O)N3CCN(Cc4cc(OC)c(OC)c(OC)c4)CC3)c(O)c2cc1OC [Example 41, 1-(6,7-dimethoxy-1-hydroxy-2-naphthoyl)-4-(3,4,5-trimethoxybenzyl)piperazine hydrochloride]	97				
COc1cc2ccc(C(=O)N3CCN(Cc4cc(OC)c(OC)c(OC)c4)CC3)cc2cc1OC [Example 21, 1-(6,7-dimethoxy-2-naphthoyl)-4-(3,4,5-trimethoxybenzyl)piperazinehydrochloride]	93				
COc1cc(CN2CCN(C(=O)C3=Cc4cc(OCc5ccccc5)c(OCc5ccccc5)cc4CC3)CC2)cc(OC)c1OC [Example 28, 1-(6,7-dibenzyloxy-1,2-dihydro-3-naphthoyl)-4-(3,4,5-trimethoxybenzyl)piperazine hydrochloride]	87				
CCCCOc1cc2ccc(C(=O)N3CCN(Cc4cc(OC)c(OC)c(OC)c4)CC3)cc2cc1OCCCC [Example 23, 1-(6,7-dibutoxy-2-naphthoyl)-4-(3,4,5-trimethoxybenzyl)piperazine hydrochloride]	100				
COc1cc(C(=O)N2CCN(C(=O)C3=Cc4ccc(OC)c(OC)c4CCC3)CC2)cc(OC)c1OC [Example 78, 1-(3,4-dimethoxy-6,7-dihydro-5H-benzocyclohepten-8-ylcarbonyl)-4-(3,4,5-trimethoxybenzoyl)piperazine]		73	57	26	
CCCCOc1ccc2c(c1)CCC(C(=O)N1CCN(Cc3cc(OC)c(OC)c(OC)c3)CC1)=C2 [Example 15, 1-(7-butoxy-1,2-dihydro-3-naphthoyl)-4-(3,4,5-trimethoxybenzyl)piperazine hydrochloride]	100				
COc1ccc2c(c1)CCC(C(=O)N1CCN(Cc3cc(OC)c(OC)c(OC)c3)CC1)=C2 [Example 1, 1-(7-methoxy-1,2-dihydro-3-naphthoyl)-4-(3,4,5-trimethoxybenzyl)piperazinehydrochloride]	100				
CCOc1c(OC)cc(C(=O)N2CCN(C(=O)C3=Cc4cc(OC)c(OC)cc4CCC3)CC2)cc1OC [Example 75, 1-(2,3-dimethoxy-6,7-dihydro-5H-benzocyclohepten-8-ylcarbonyl)-4-(3,5-dimethoxy-4-ethoxy-benzoyl)piperazine]		61	54	61	
COc1cc2c(cc1OC)CCCC(C(=O)N1CCN(C(=S)c3cc(OC)c(OC)c(OC)c3)CC1)=C2 [Example 76, 1-(2,3-dimethoxy-6,7-dihydro-5H-benzocyclohepten-8-ylcarbonyl)-4-(3,4,5-trimethoxythiobenzoyl)piperazine]		100	100	100	inhibition in vivo at 3 mg/kg (PAF-Induced Hypotension; after 1 hr): 72%; inhibition in vivo at 3 mg/kg (PAF-Induced Hypotension; after 2 hrs): 69%; inhibition in vivo at 3 mg/kg (PAF-Induced Hypotension; after 4 hrs): 60%
COc1cc(CN2CCN(C(=O)c3cccc4ccccc34)CC2)cc(OC)c1OC [Example 8, 1-(1-naphthoyl)-4-(3,4,5-trimethoxybenzyl)piperazine hydrochloride]	84				
COc1ccc2cc(C(=O)N3CCN(Cc4cc(OC)c(OC)c(OC)c4)CC3)ccc2c1 [Example 9, 1-(6-methoxy-2-naphthoyl)-4-(3,4,5-trimethoxybenzyl)piperazine hydrochloride]	87				
COc1cc2c(cc1OC)CC(C(=O)N1CCN(C(=O)c3cc(OC)c(OC)c(OC)c3)CC1)=C2 [Example 61, 1-(5,6-dimethoxy-1-H-inden-2-ylcarbonyl)-4-(3,4,5-trimethoxybenzoyl)piperazine]		86	82	74	
COc1cc(CN2CCN(C(=O)c3ccc4c(c3)C(=O)c3ccccc3-4)CC2)cc(OC)c1OC [Example 38, 1-(9-oxo-2-fluorenylcarbonyl)-4-(3,4,5-trimethoxybenzyl)piperazine]	85				
COc1cc(CN2CCN(C(=O)C3=Cc4cc(OC(C)=O)c(OC(C)=O)cc4CC3)CC2)cc(OC)c1OC [Example 36, 1-(6,7-diacetyloxy-1,2-dihydro-3-naphthoyl)-4-(3,4,5-trimethoxybenzyl)piperazine fumarate]	86				
COc1cc(CN2CCN(C(=O)C3=Cc4cc(OC)c(OC)c(OC)c4CC3)CC2)cc(OC)c1OC [Example 10, 1-(6,7,8-trimethoxy-1,2-dihydro-3-naphthoyl)-4-(3,4,5-trimethoxybenzyl)piperazine hydrochloride]	87				
COc1cc(CN2CCN(C(=O)c3ccc4c(c3)C(=O)c3ccccc3C4=O)CC2)cc(OC)c1OC [Example 26, 1-(2-anthraquinonylcarbonyl)-4-(3,4,5-trimethoxybenzyl)piperazine]	91				
COc1cc2c(cc1OC)CC(C(=O)N1CCN(C(=O)c3cc(OC)c(OC)c(OC)c3)CC1)CC2 (centres unmarked) [Example 79]		81	88	66	
COc1cc2c(cc1OC)CC(C(=O)N1CCN(C(=O)c3cc(OC)c(OC)c(OC)c3)CC1)CCC2 (centres unmarked) [Example 86, 1-(2,3-dimethoxy-5,6,7,8-tetrahydrobenzocyclohepten-6-ylcarbonyl)-4-(3,4,5-trimethoxy-benzoyl)piperazine]		100	100	100	inhibition in vivo at 10 mg/kg (PAF-Induced Hypotension; after 1 hr): 90%; inhibition in vivo at 10 mg/kg (PAF-Induced Hypotension; after 2 hrs): 92%; inhibition in vivo at 10 mg/kg (PAF-Induced Hypotension; after 4 hrs): 92%
COc1cc(CN2CCN(C(=O)C3=Cc4ccc(OCc5ccccc5)cc4CC3)CC2)cc(OC)c1OC [Example 32, 1-(7-benzyloxy-1,2-dihydro-3-naphthoyl)-4-(3,4,5-trimethoxybenzyl)piperazine hydrochloride]	100				
